Assay type: physicochemical
Experimental: The temperature was adjusted to 90° C. The 2,4-DHBP concentration in the feed DIOPAT suspension of the diafiltration was about 0.32%. […] Thus, some 2,4-DHBP probably was already precipitated and had to be brought back into solution during the DF process. In the DF process, the DIOPAT suspension was held at 90° C. and was permanently washed with 12 kg fresh water. During the washing process, the DIOPAT concentration stayed constant. To separate the Al-salts and organic by-products, the DIOPAT suspension was pumped from the feed vessel to a ceramic membrane module and from there back to the feed vessel. In the ceramic membrane, the dissolved components (Al-salts and some org. components such as 2,4-DHBP) passed through the membrane. The DIOPAT particles stayed in the suspension and went back to the feed vessel. The permeate was send to the waste water treatment plant. In total, the suspension at the beginning of the membrane process (suspension after precipitation) was washed with a washing factor of 4.5. Then, the Al-salt concentration in the retentate was less than approx. 65 ppm.

- solubility in acidic water: about 0.18%
Structure (SMILES): O=C(c1ccccc1)c1ccc(O)cc1O [2,4-DHBP, 2,4-dihydroxybenzophenone]

From patent publication US12304891B2, “Removal of Al-salts, HCl, NaCl and organic by-product from DIOPAT suspension by means of ceramic membranes in strong acidic conditions at high temperature” (BASF SE, priority 2018, dated 2025)
